Laboratory results from ChEMBL document CHEMBL4376895.
The source made the active and inactive calls. Positions of bridges follow the written chain, without caps; N, C: chain ends. Residues, ends and D or L forms follow the SMILES beside them.

Assays:
Type in all cases: cell-based
[1] = target: Neuronal acetylcholine receptor; alpha4/beta2 (Rattus norvegicus) (UniProt P09483+P12390); assay: Antagonist activity at rat alpha4beta2 nAChR expressed in Xenopus laevis oocytes assessed as inhibition of Ach-induced response up to 10 uM at -70 mV holding potential by two electrode voltage-clamp assay
[2] = target: Neuronal acetylcholine receptor; alpha2/beta4 (Rattus norvegicus) (UniProt P12389+P12392); assay: Antagonist activity at rat alpha2beta4 nAChR expressed in Xenopus laevis oocytes assessed as inhibition of Ach-induced response up to 10 uM at -70 mV holding potential by two electrode voltage-clamp assay
[3] = target: Neuronal acetylcholine receptor; alpha4/beta4 (Rattus norvegicus) (UniProt P09483+P12392); assay: Antagonist activity at rat alpha4beta4 nAChR expressed in Xenopus laevis oocytes assessed as inhibition of Ach-induced response up to 10 uM at -70 mV holding potential by two electrode voltage-clamp assay

Measured: inhibition

CC[C@H](C)[C@H](NC(=O)[C@H](CCCNC(=N)N)NC(=O)[C@H](CCCNC(=N)N)NC(=O)[C@@H]1CSSC[C@H](NC(=O)[C@H](Cc2ccc(O)cc2)NC(=O)[C@H](CCCNC(=N)N)NC(=O)CNC(=O)[C@H](CO)NC(=O)[C@H](CO)NC(=O)[C@H](CCCNC(=N)N)NC(=O)[C@H](C)NC(=O)[C@@H](N)[C@@H](C)O)C(=O)N[C@@H](CCCNC(=N)N)C(=O)N[C@@H](CO)C(=O)N2CCC[C@H]2C(=O)N[C@@H](Cc2ccc(O)cc2)C(=O)N[C@@H](CC(=O)O)C(=O)N[C@@H](CCCNC(=N)N)C(=O)N[C@@H](CCCNC(=N)N)C(=O)N[C@@H](CCCNC(=N)N)C(=O)N[C@@H](CCCNC(=N)N)C(=O)N[C@@H](Cc2ccc(O)cc2)C(=O)N1)C(=O)N[C@H](C(=O)N[C@@H](CC(=O)O)C(=O)N[C@@H](C)C(=O)N[C@@H](C)C(=O)N[C@H](C(=O)O)C(C)C)[C@@H](C)O
inactive: all assays above

CC[C@H](C)[C@H](NC(=O)[C@H](CCCNC(=N)N)NC(=O)[C@H](CCCNC(=N)N)NC(=O)[C@@H]1CSSC[C@H](NC(=O)[C@H](Cc2ccc(O)cc2)NC(=O)[C@H](CCCNC(=N)N)NC(=O)CNC(=O)[C@H](CO)NC(=O)[C@H](CO)NC(=O)[C@H](CCCNC(=N)N)NC(=O)[C@H](CO)NC(=O)[C@@H](N)[C@@H](C)O)C(=O)N[C@@H](CCCNC(=N)N)C(=O)N[C@@H](CO)C(=O)N2CCC[C@H]2C(=O)N[C@@H](Cc2ccc(O)cc2)C(=O)N[C@@H](CC(=O)O)C(=O)N[C@@H](CCCNC(=N)N)C(=O)N[C@@H](CCCNC(=N)N)C(=O)N[C@@H](CCCNC(=N)N)C(=O)N[C@@H](CCCNC(=N)N)C(=O)N[C@@H](Cc2ccc(O)cc2)C(=O)N1)C(=O)N[C@H](C(=O)N[C@@H](CC(=O)O)C(=O)N[C@@H](C)C(=O)N[C@@H](CO)C(=O)N[C@H](C(=O)O)C(C)C)[C@@H](C)O
inactive: all assays above

CC[C@H](C)[C@H](NC(=O)[C@H](CCCNC(=N)N)NC(=O)[C@H](CCCNC(=N)N)NC(=O)[C@H](C)NC(=O)[C@H](Cc1ccc(O)cc1)NC(=O)[C@H](CCCNC(=N)N)NC(=O)[C@H](CCCNC(=N)N)NC(=O)[C@H](CCCNC(=N)N)NC(=O)[C@H](CCCNC(=N)N)NC(=O)[C@H](CC(=O)O)NC(=O)[C@H](Cc1ccc(O)cc1)NC(=O)[C@@H]1CCCN1C(=O)[C@H](CO)NC(=O)[C@H](CCCNC(=N)N)NC(=O)[C@@H]1CSSC[C@H](NC(=O)[C@@H](N)[C@@H](C)O)C(=O)N[C@@H](CCCNC(=N)N)C(=O)N[C@@H](CO)C(=O)N[C@@H](CO)C(=O)NCC(=O)N[C@@H](CCCNC(=N)N)C(=O)N[C@@H](Cc2ccc(O)cc2)C(=O)N1)C(=O)N[C@H](C(=O)N[C@@H](CC(=O)O)C(=O)N[C@@H](C)C(=O)N[C@@H](C)C(=O)N[C@H](C(=O)O)C(C)C)[C@@H](C)O
inactive: all assays above

CC[C@H](C)[C@H](NC(=O)[C@H](CCCNC(=N)N)NC(=O)[C@H](CCCNC(=N)N)NC(=O)[C@H](CO)NC(=O)[C@H](Cc1ccc(O)cc1)NC(=O)[C@H](CCCNC(=N)N)NC(=O)[C@H](CCCNC(=N)N)NC(=O)[C@H](CCCNC(=N)N)NC(=O)[C@H](CCCNC(=N)N)NC(=O)[C@H](CC(=O)O)NC(=O)[C@H](Cc1ccc(O)cc1)NC(=O)[C@@H]1CCCN1C(=O)[C@H](CO)NC(=O)[C@H](CCCNC(=N)N)NC(=O)[C@@H]1CSSC[C@H](NC(=O)[C@@H](N)[C@@H](C)O)C(=O)N[C@@H](CCCNC(=N)N)C(=O)N[C@@H](CO)C(=O)N[C@@H](CO)C(=O)NCC(=O)N[C@@H](CCCNC(=N)N)C(=O)N[C@@H](Cc2ccc(O)cc2)C(=O)N1)C(=O)N[C@H](C(=O)N[C@@H](CC(=O)O)C(=O)N[C@@H](C)C(=O)N[C@@H](CO)C(=O)N[C@H](C(=O)O)C(C)C)[C@@H](C)O
inactive: all assays above

CC[C@H](C)[C@@H]1NC(=O)[C@H](CCCNC(=N)N)NC(=O)[C@H](CCCNC(=N)N)NC(=O)[C@@H](NC(=O)[C@H](Cc2ccc(O)cc2)NC(=O)[C@H](CCCNC(=N)N)NC(=O)[C@H](CCCNC(=N)N)NC(=O)[C@H](CCCNC(=N)N)NC(=O)[C@H](CCCNC(=N)N)NC(=O)[C@H](CC(=O)O)NC(=O)[C@H](Cc2ccc(O)cc2)NC(=O)[C@@H]2CCCN2C(=O)[C@H](CO)NC(=O)[C@H](CCCNC(=N)N)NC(=O)[C@H](C)NC(=O)[C@H](Cc2ccc(O)cc2)NC(=O)[C@H](CCCNC(=N)N)NC(=O)CNC(=O)[C@H](CO)NC(=O)[C@H](CO)NC(=O)[C@H](CCCNC(=N)N)NC(=O)[C@H](C)NC(=O)[C@@H](N)[C@@H](C)O)CSSC[C@@H](C(=O)N[C@H](C(=O)O)C(C)C)NC(=O)[C@H](C)NC(=O)[C@H](CC(=O)O)NC(=O)[C@H]([C@@H](C)O)NC1=O (H-TARSSGRYARSPYDRRRRYCRRITDACV-OH; disulfide 20-27)
inactive: all assays above

CC[C@H](C)[C@@H]1NC(=O)[C@H](CCCNC(=N)N)NC(=O)[C@H](CCCNC(=N)N)NC(=O)[C@H](C)NC(=O)[C@H](Cc2ccc(O)cc2)NC(=O)[C@H](CCCNC(=N)N)NC(=O)[C@H](CCCNC(=N)N)NC(=O)[C@H](CCCNC(=N)N)NC(=O)[C@H](CCCNC(=N)N)NC(=O)[C@H](CC(=O)O)NC(=O)[C@H](Cc2ccc(O)cc2)NC(=O)[C@@H]2CCCN2C(=O)[C@H](CO)NC(=O)[C@H](CCCNC(=N)N)NC(=O)[C@H](C)NC(=O)[C@H](Cc2ccc(O)cc2)NC(=O)[C@H](CCCNC(=N)N)NC(=O)CNC(=O)[C@H](CO)NC(=O)[C@H](CO)NC(=O)[C@H](CCCNC(=N)N)NC(=O)[C@@H](NC(=O)[C@@H](N)[C@@H](C)O)CSSC[C@@H](C(=O)N[C@H](C(=O)O)C(C)C)NC(=O)[C@H](C)NC(=O)[C@H](CC(=O)O)NC(=O)[C@H]([C@@H](C)O)NC1=O (H-TCRSSGRYARSPYDRRRRYARRITDACV-OH; disulfide 2-27)
inactive: all assays above

CC[C@H](C)[C@@H]1NC(=O)[C@H](CCCNC(=N)N)NC(=O)[C@H](CCCNC(=N)N)NC(=O)[C@H](CO)NC(=O)[C@H](Cc2ccc(O)cc2)NC(=O)[C@H](CCCNC(=N)N)NC(=O)[C@H](CCCNC(=N)N)NC(=O)[C@H](CCCNC(=N)N)NC(=O)[C@H](CCCNC(=N)N)NC(=O)[C@H](CC(=O)O)NC(=O)[C@H](Cc2ccc(O)cc2)NC(=O)[C@@H]2CCCN2C(=O)[C@H](CO)NC(=O)[C@H](CCCNC(=N)N)NC(=O)[C@H](CO)NC(=O)[C@H](Cc2ccc(O)cc2)NC(=O)[C@H](CCCNC(=N)N)NC(=O)CNC(=O)[C@H](CO)NC(=O)[C@H](CO)NC(=O)[C@H](CCCNC(=N)N)NC(=O)[C@@H](NC(=O)[C@@H](N)[C@@H](C)O)CSSC[C@@H](C(=O)N[C@H](C(=O)O)C(C)C)NC(=O)[C@H](C)NC(=O)[C@H](CC(=O)O)NC(=O)[C@H]([C@@H](C)O)NC1=O (H-TCRSSGRYSRSPYDRRRRYSRRITDACV-OH; disulfide 2-27)
inactive: all assays above
